Assay results taken from US4464383A, “Immunomodulator containing trithiazole pentamethine cyanine derivative” (priority 1981, dated 1984).
Where two headings read alike, the source gives them in different places.

Tests used:
[1] = Change in body weight of rat with adjuvant arthritis; type: in vivo, SD rats; conditions: D-penicillamine or Levamisole; 1st, 10th, 20th and 30th day
Experimental: (§1) Five SD rats 7 to 8 weeks old weighing about 150 g. were used as one group. A dispersion of mycobacterium butyricium in liquid parrafin in a concentration of 12 mg./ml. was injected intracutaneously into the footpad of the right hind foot in a dose of 0.05 ml./rat to cause an adjuvant arthritis (AA). For 30 days after the injection of the adjuvant, the volume of both hind feet was measured by a mercury plethysmography and AA was estimated from the obtained measurements.
(§2) With respect to Compound Nos. 1, 3 and 10, the preventive effect on AA was examined. The oral administration of the compound to be tested was begun at the same time as the administration of the adjuvant and continued for 30 days once a day. The same test was carried out with D-penicillamine and Levamisole.
During the test of the preventive effect on AA as described in the above (1), the body weight of each rat was measured on 1st, 10th, 20th, and 30th day.

[2] = Inhibition of adjuvant arthritis in rat, preventive effect (paw volume); type: in vivo, SD rats
Experimental: as §1, §2

[3] = prior art; cited from earlier work
Acute toxicity (LD50) = conditions: mouse, in vivo, mice, 7 days observation
Experimental: Eight male ddY mice 5 to 6 weeks old weighing 25 to 30 g. were used as one group. A 5% suspension of the compound to be tested in gum arabic was administered intraperitoneally, intravenously or orally using a stomach tube. The animals were kept under observation for 7 days. The numbers of dead animals were counted and the LD50 values were calculated by the Van der Warden method.

Clinical test, Case 2 = type: in vivo, patient
[4] = Pharmacological activities and side-effects, general statements
Clinical test, Case 1 = type: in vivo, patient; conditions: 50 μg. once a day, oral
[5] = Effect on carrageenan-induced edema in rat; type: in vivo, SD rats; conditions: dose 0.005 to 0.05 μg./animal, oral, 30 minutes before carrageenan
Experimental: Five SD rats 7 to 8 weeks old weighing about 150 g. were used as one group. A 1% dispersion of carrageenan was injected intracutaneously into the foot pad of the right hind foot in a dose of 0.1 ml./rat. For 6 hours after the injection, the volume of the foot subjected to the injection was measured by a mercury plethysmography and the carrageenan-induced edema was estimated from the obtained measurements. Compound No. 3 was orally administered 30 minutes before the injection of the carrageenan dispersion.

[6] = dose 1.5 mg./animal (even at a higher dose)
[7] = dose 0.05 μg./animal, oral, once a day for 30 days
[8] = 100 μg. once a day, oral, after 5 days
[9] = after 3 weeks, twice a week after 7 days, oral

CC(C)(S)[C@@H](N)C(=O)O [D-penicillamine]
change in body weight compared with Control [1]: no significant difference
inhibition of AA, preventive effect [2, 6]: do not inhibit AA
toxicity of known immunomodulators [3]: severe toxicities

CCCCCCCCCCCCN1C(C)=CSC1=CC=C(C=Cc1scc(C)[n+]1CCCCCCCCCCCC)c1scc(C)[n+]1CCCCCCCCCCCC [compound 10]
LD50 at 168 h (Acute toxicity (LD50); ip, i.p., read-out: LD50 i.p.): 300 mg/kg
LD50 at 168 h (Acute toxicity (LD50); iv, i.v., read-out: LD50 i.v.): 45.2 mg/kg
LD50 at 168 h (Acute toxicity (LD50); po, p.o., read-out: LD50 p.o.): > 1400 mg/kg
inhibition of AA, preventive effect [2, 7]: inhibit AA

COc1ccc2c(c1)c(CC(=O)O)c(C)n2C(=O)c1ccc(Cl)cc1 [Indometacin, reference compound]
side-effect of the medicines used before (Clinical test, Case 2; human, in vivo): gastric ulcer, urticaria and diarrhea
condition of the patient on previous treatment (Clinical test, Case 2; suppository of Shiozol and that of Indometacin, before Compound No. 3): took a turn for the worse

CCCCCCCN1C(C)=CS\C1=C/C=C(/C=C/c1scc(C)[n+]1CCCCCCC)c1scc(C)[n+]1CCCCCCC
side-effects ([4]; cytotoxicity (e.g. granulocytopenia), vomiting, nausea, pyrexia, rash and myasthenia): does not have side-effects
immunomodulating action ([4]; immunological function enhanced): shows an immunosuppressive effect
immunomodulating action ([4]; immunological function lowered): shows an immunological activating effect
immunomodulating action ([4]; normal immunological function): has no influence on the normal immunological function
LD50 at 168 h (Acute toxicity (LD50); ip, i.p., read-out: LD50 i.p.): 100 mg/kg
LD50 at 168 h (Acute toxicity (LD50); iv, i.v., read-out: LD50 i.v.): 12 mg/kg
LD50 at 168 h (Acute toxicity (LD50); po, p.o., read-out: LD50 p.o.): > 1400 mg/kg
systemic malaise and stiffness in the morning (Clinical test, Case 2; 100 μg. once a day, oral, after 3 days): relieved
inflammation at the joints (Clinical test, Case 2; [8]): relieved
need for suppository of Indometacin (Clinical test, Case 2; [8]): no necessity for administering the suppository of Indometacin
sleep (Clinical test, Case 2; [8]): became to sleep well
side-effect (Clinical test, Case 2; 100 μg., oral): No side-effect was observed
ability to walk (Clinical test, Case 2; [9]): became to be able to walk
swelling (hydrocele) at the joints (Clinical test, Case 2; [9]): improved
inhibition of AA, preventive effect ([2]; dose 0.005 μg./animal, oral, once a day for 30 days): inhibited AA
inhibition of AA, preventive effect [2, 7]: inhibit AA
known pharmacological activities [3]: antibacterial activity, the acceleration of wound healing, the stimulation of reticular hematopoietic organ and endocrine organ, and the enhancement of antibody formation
side-effect (Clinical test, Case 1): no side-effect
therapeutic effect (Clinical test, Case 1): excellent therapeutic effect
inflammation at wrist articulatio coxae and violent pain (Clinical test, Case 1; after 5 days): almost removed
stiffness in the morning and systemic malaise (Clinical test, Case 1; after 5 days): relieved
mobility (Clinical test, Case 1; morning of the seventh day): could arise from a sickbed and go down the stairs with ease
anti-inflammatory action on carrageenan-induced edema [5]: did not show anti-inflammatory action

O=C([O-])c1ccccc1Nc1cc(Cl)ccc1C(=O)[O-].[Na+].[Na+] [CCA, N-(2-carboxyphenyl)-4-chloroanthranilic acid disodium salt]
toxicity of known immunomodulators [3]: severe toxicities

c1ccc([C@H]2CN3CCSC3=N2)cc1 [Levamisole]
change in body weight compared with Control [1]: no significant difference
inhibition of AA, preventive effect [2, 6]: do not inhibit AA
toxicity of known immunomodulators [3]: severe toxicities

CC1=CSC(=CC=C(C=Cc2scc(C)[n+]2C)c2scc(C)[n+]2C)N1C [compound 1]
LD50 at 168 h (Acute toxicity (LD50); ip, i.p., read-out: LD50 i.p.): 23.4 mg/kg
LD50 at 168 h (Acute toxicity (LD50); iv, i.v., read-out: LD50 i.v.): 6.25 mg/kg
LD50 at 168 h (Acute toxicity (LD50); po, p.o., read-out: LD50 p.o.): > 1400 mg/kg
inhibition of AA, preventive effect [2, 7]: inhibit AA

CCCCCCCCN1C(C)=CS\C1=C/C=C(/C=C/c1scc(C)[n+]1CCCCCCCC)c1scc(C)[n+]1CCCCCCCC
LD50 at 168 h (Acute toxicity (LD50); ip, i.p., read-out: LD50 i.p.): 120 mg/kg
LD50 at 168 h (Acute toxicity (LD50); iv, i.v., read-out: LD50 i.v.): 13.5 mg/kg
LD50 at 168 h (Acute toxicity (LD50); po, p.o., read-out: LD50 p.o.): > 1400 mg/kg

CCCCN1C(C)=CSC1=CC=C(C=Cc1scc(C)[n+]1CCCC)c1scc(C)[n+]1CCCC [compound 2]
LD50 at 168 h (Acute toxicity (LD50); ip, i.p., read-out: LD50 i.p.): 51 mg/kg
LD50 at 168 h (Acute toxicity (LD50); iv, i.v., read-out: LD50 i.v.): 8.5 mg/kg
LD50 at 168 h (Acute toxicity (LD50); po, p.o., read-out: LD50 p.o.): > 1400 mg/kg
